Data taken from patent US20260250318A1, “COMPOSITIONS AND METHODS FOR CROSSING THE BLOOD BRAIN BARRIER” (VOYAGER THERAPEUTICS, INC., priority 2022, published 2026).

Legend:
Conditions in all cases: synthetic library passage 3, intravenous, relative to wild-type AAV9
[1] = tested on: brain, spinal cord, and DRG of the NHPs; assay: NGS fold enrichment of synthetic library (passage 3) in NHPs, first cross-species screen; assay type: in vivo, cynomolgus macaques (Macaca fascicularis)
Procedure: (§1) After creation of the synthetic library with the sub-selected variants, the synthetic library was screened (passage 3) in two NHPs (2-4 years of age) and two strains of mice, BALB/c (n=3, 6-8 weeks of age) and C57Bl/6 mice (n=3, 6-8 weeks of age), in a first cross-species evolution screen. The animals were injected intravenously with the synthetic library. After a period in vivo, (e.g., 28-days) RNA was extracted from nervous tissue, e.g., brain, spinal cord, and DRG of the NHPs and the brains of mice. Following RNA recovery and RT-PCR amplification, a systematic NGS enrichment analysis was performed, and the peptides comprised within the variants were identified and the capsid enrichment ratio for each variant compared to the wild-type AAV9 control was calculated (fold enrichment relative to wild-type AAV9) (Table 9). […] All animals were dosed intravenously at […] across the screen.

brain [2] = assay: NGS fold enrichment of synthetic library (passage 3) in BALB/c mice, first cross-species screen; assay type: in vivo
Procedure: as §1

brain [3] = assay: NGS fold enrichment of synthetic library (passage 3) in C57Bl/6 mice, first cross-species screen; assay type: in vivo
Procedure: as §1

[4] = RNA from spinal cord of NHPs, NGS
[5] = RNA from brain of BALB/c mice, NGS
[6] = RNA from brain of C57Bl/6 mice, NGS

Sequence	Fold enrichment over AAV9 in the brain of NHPs ([1]; RNA from brain of NHPs, NGS)	Fold enrichment over AAV9 in the spinal cord of NHPs [1, 4]	Fold enrichment over AAV9 in the brain of Mice (BALB/c) (brain [2]; [5])	Fold enrichment over AAV9 in the brain of Mice (C57Bl/6) (brain [3]; [6])	Fold enrichment over AAV9 in the brain of NHPs ([1]; RNA NGS, brain of NHPs)	Fold enrichment over AAV9 in the spinal cord of NHPs ([1]; RNA NGS, spinal cord of NHPs)	Fold enrichment over AAV9 in the brain of Mice (BALB/c) (brain [2]; RNA NGS, brain of BALB/c mice)	Fold enrichment over AAV9 in the brain of Mice (C57Bl/6) (brain [3]; RNA NGS, brain of C57Bl/6 mice)
GSGQNQQTGQHMRV	1.286 fold	4.161 fold	1.635 fold	1.839 fold				
GSGQNQQTALEKSL					1.092 fold	0.000 fold	0.702 fold	0.625 fold
GPGLGSHSGQNQQT					1.906 fold	14.563 fold	1.195 fold	0.880 fold
GSGQNQQSLSGSFT					1.105 fold	0.735 fold	0.883 fold	0.745 fold
GSRNGHAVGQNQQT					1.574 fold	2.688 fold	0.939 fold	0.434 fold
GSGFNQRSEQNQQT					2.121 fold	4.491 fold	0.758 fold	1.770 fold
GSSGRDMGGQNQQT					1.778 fold	2.177 fold	0.595 fold	1.052 fold
GSGQNQQLAITLGT					1.011 fold	0.000 fold	0.143 fold	0.877 fold
GSRNGHTVGRNQQT					1.993 fold	0.000 fold	0.367 fold	1.162 fold
GVSRGGPSGQNQQT					1.028 fold	1.611 fold	0.591 fold	0.750 fold
GSGQNQQLKENRST					2.765 fold	0.062 fold	1.118 fold	1.149 fold
GSGQNQALVSMGQT	1.255 fold	1.876 fold	0.560 fold	0.987 fold				
GHTLTLSSGQNQQT					3.405 fold	5.648 fold	0.606 fold	0.648 fold
GSGQREPKASNQQT	1.214 fold	2.793 fold	0.520 fold	0.399 fold				
GSGQRLSQGVNHQT					1.108 fold	3.394 fold	1.141 fold	0.931 fold
GSGQNQYSSTNPQT					1.542 fold	2.251 fold	0.535 fold	0.544 fold

Sequence	Fold enrichment over AAV9 in the brain of NHPs ([1]; RNA from brain of NHPs, NGS)	Fold enrichment over AAV9 in the spinal cord of NHPs [1, 4]	Fold enrichment over AAV9 in the brain of Mice (BALB/c) (brain [2]; [5])	Fold enrichment over AAV9 in the brain of Mice (C57Bl/6) (brain [3]; [6])	Fold enrichment over AAV9 in the brain of NHPs ([1]; RNA NGS, brain of NHPs)	Fold enrichment over AAV9 in the spinal cord of NHPs ([1]; RNA NGS, spinal cord of NHPs)	Fold enrichment over AAV9 in the brain of Mice (BALB/c) (brain [2]; RNA NGS, brain of BALB/c mice)	Fold enrichment over AAV9 in the brain of Mice (C57Bl/6) (brain [3]; RNA NGS, brain of C57Bl/6 mice)
GSSVRSLVGQNQQT					1.004 fold	3.840 fold	0.608 fold	0.412 fold
GSGQNQQLSGKSVT					1.070 fold	1.524 fold	0.930 fold	1.276 fold
GSGQSSGRLINKQT					2.055 fold	28.135 fold	0.277 fold	0.543 fold
GSGQNQQPPLATRT	1.386 fold	2.295 fold	0.287 fold	0.593 fold				
GSGQNQQTHPSPCT					1.510 fold	1.003 fold	0.546 fold	1.120 fold
GSGQNQQHASSNNT	1.166 fold	7.155 fold	0.896 fold	0.789 fold				
GRGVITSSGQNHQT					2.004 fold	0.864 fold	0.669 fold	1.656 fold
GSGMRQAGVQNQQT					1.032 fold	0.811 fold	0.775 fold	0.736 fold
GSGPSISHGQNQQT					1.000 fold	0.000 fold	0.665 fold	0.614 fold
GSGQNQQTSVSQQT	1.342 fold	1.614 fold	0.913 fold	1.030 fold				
GAGLIMHSGQNQQT					1.425 fold	1.408 fold	0.511 fold	0.565 fold
GSGQLVSGLYNQQT	1.325 fold	0.000 fold	0.733 fold	0.842 fold				
GPASLPISGQNQQT	1.386 fold	9.008 fold	0.155 fold	0.312 fold				
GRGGSMAETQNQQT					1.024 fold	2.853 fold	0.669 fold	0.799 fold
GRMFSLGSGQNQQT					1.836 fold	8.429 fold	1.174 fold	1.630 fold
